As a reminder, the IC50 is the concentration that inhibits the measured activity by half. As usually defined, the melting point is the temperature, or range, at which the solid turns liquid. One may read the EC50 as the concentration at which the effect is half-maximal.

Data set [1] relates to E. faecalis plankton and biofilm. Nature of the data set: Comparison of effectiveness in plankton and biofilm (matched fraction of dead cells). The data set is classed as cell-based, Enterococcus faecalis. The following applies: for dilution in plankton needed to match the fraction of dead cells in the biofilm: high density E. faecalis suspension 2.4 × 10^9 CFU/mL. The text has this: In plankton suspensions we were able to reach bactericidal concentration for all tested QACs. The situation was quite different in biofilms. The concentrations that work in plankton were not sufficient to kill all bacteria in the biofilm. […] Unfortunately, due to the solubility limit, it was not possible to increase the concentration of the QACs to concentrations that would kill all bacteria in the biofilm. Nevertheless, we can compare the effectiveness in plankton and biofilm if we decrease the concentration of biocide in the plankton to match the fraction of the dead cells in the biofilm. […] The experiment was performed at high density E. faecalis suspensions (2.4 × 10^9 CFU/mL) to mimic the high density of bacteria in a biofilm. By comparing QACs effectiveness at high initial planktonic densities we have largely eliminated the effect of the bacterial density and estimated the effect of biofilm induced changes on QACs sensitivity. One has to be careful, however, as bacterial cells in plankton differ from biofilm not only in cell density but also in cell metabolism and extracellular matrix viscoelasticity. To match the fraction of dead cells in the biofilm, the 10-fold dilution of compounds A14 and B14 were needed, whereas only 4-fold dilution of compound C14 was required. […] The activity of QACs in biofilms relative to plankton was two orders of magnitude […] than usually reported in the literature. Although our biofilms were mature, they were relatively thin (up to 10 μm) which may explain the relatively high efficiency of the QACs against biofilms. Similar observations have been made for S. mutans biofilms, where biofilm cells were only 8 times less susceptible to QACs compared to plankton bacteria ([López Pérez et al., 2017]).

Another data set has as its system CHO-K1 cells. Nature of the data set: MTT cell viability assay on CHO-K1 cells. In kind it is cell-based, Chinese hamster. The following applies: 24 h exposure. As for the experimental part:
Standard MTT assay (3-(4,5-dimethylthiazol-2-yl)-2,5-diphenyltetrazolium bromide; Sigma-Aldrich, Prague, Czechia) was used according to the manufacturer’s protocol on the CHO-K1 (Chinese hamster ovary, ECACC, Salisbury, United Kingdom) in order to compare the effect of different compounds within the series. The cells were cultured according to ECACC recommended conditions and seeded in a density of 8000 per well as described previously ([Soukup et al., 2020]). […] Thereafter, CHO-K1 cells were exposed to two-fold diluted series A, B, C or ten-fold diluted sodium hypochlorite for 24 h. Then the medium was replaced by a medium containing 0.5 mg/ml of MTT and the cells were allowed to produce formazan for approximately 3 h under surveillance. Thereafter, the medium with MTT was removed and crystals of formazan were dissolved in DMSO (100 μl/well). Cell viability was assessed spectrophotometrically by the amount of formazan produced. The absorbance was measured at 570 nm on Synergy HT (BioTek, Winooski, VT, United States). IC50 (half maximal inhibitory concentration) was then calculated from the control – subtracted triplicates using non-linear regression (four parameters) by GraphPad Prism 5.03 or 7.03 software (GraphPad Software Inc., San Diego, CA, United States). Final IC50 and SEM (standard error of the mean) values were obtained as a mean of three independent measurements.

The subject of data set [2] is E. faecalis biofilms on titanium surface. Nature of the data set: Biofilm susceptibility assay, live/dead staining CLSM. In kind it is cell-based, Enterococcus faecalis. The following applies: for biofilm surface coverage change during the treatment: 1, 3 and 60 min of treatment; for proportion of live cells in biofilm: after 60 min of treatment. The protocol: To grow the biofilms, an overnight culture of E. faecalis (average viable bacterial concentration of 1 × 10^8 CFU/ml) was diluted 100-fold in BHI. E. faecalis biofilms were formed on titanium radial disks (commercially pure titanium, grade 2) with 7 mm diameter and 1 mm thickness. Prior to the experiments all disks were sandblasted (FerroEcoBlast Europe; Microblast ceramic beads B120) to expose fresh titanium surface, cleaned in 70% ethanol and autoclaved at 134°C for 20 min. The biofilms were grown for 3 days at 37°C ± 1°C without shaking or changing of media to achieve a surface coverage of approximately 25% and a surface bacterial density of ∼1.5 × 10^11 bacteria […]. Biofilms grown on a titanium surface were exposed to 1.5 ml of A14, B14, and C14 dissolved in BHI for 1, 3, and 60 min. After treatment the individual disks were rinsed with saline solution to remove QACs as well as unattached bacteria. In laser treated biofilms samples were treated with QACs for 1 min followed by 10 s of Er:YAG – SSP laser treatment. The LightWalker Er:YAG (Fotona, Ljubljana, Slovenia) was set with the following parameters: laser wavelength 2940 nm; contact handpiece H14, Flat Sweeps fiber tip 400/14 positioned 5 mm above the biofilm disk, energy 20 mJ, frequency 15 Hz, water off, air off, single pulse modality – SSP (super short pulse – 50 μs). The titanium disks with their biofilm were positioned at the bottom of cylindrical irrigation system (7.5 mm diameter and 2 cm high) in the presence of 1.5 ml of either saline or the QAC dissolved in BHI. The antibacterial concentration was 250 μM which was the highest soluble QAC concentration in BHI broth. The rinsed biofilms were stained with 5 μL of premixed saline-diluted Syto 9 and propidium iodide stock solutions (1: 300) from LIVE/DEAD^TM BacLight^TM Bacterial Viability Kit L7012 (Thermo Fisher Scientific, Eugene, OR, United States). After 5 min of incubation in the dark the samples were observed by fluorescence microscope Zeiss Axio Observer Z1 equipped with confocal unit LSM 800 (CLSM). Z-stacks and tiles were taken at 100× or 20× magnification at three randomly selected view fields. Image acquisition and control of the microscope were performed with ZEN 2.3 (ZEISS GmbH, Germany). For the 100× magnification, blue 488 nm and yellow 561 nm lasers were set to 1% intensity, GaAsP PMT detectors to 700 V, pinhole to 71 μm, and the size of the acquired 8-bit images was 3476 × 3476 pixels. For the 20× magnification, blue 488 nm and yellow 561 nm lasers were set to 0.85% intensity, GaAsP PMT detectors to 700 V, pinhole to 50 μm and the size of acquired 8-bit images was 1306 × 1306 pixels. The typical Z-step of the Z-stack was 1 μm for 100× magnification and 3.26 μm for 20× magnification. The images were composed of four different view fields. A custom script was written (Image J) and used to evaluate the effect of treatment on the fraction of dead cells and biofilm surface coverage.

For a further data set, the system named is Human alveolar cells. The arrangement: method as in Kwon et al., 2019. As to conditions: cytotoxicity, ref Kwon et al., 2019; cited from earlier work.
A further data set relates to human hepatoma cell line. The arrangement: method as in Christen et al., 2017. As to conditions: cytotoxicity, ref Christen et al., 2017; cited from earlier work.
Data set [3] deals with osteosarcoma cybrid cells. Also on record: method as in Datta et al., 2017. The following applies: cytotoxicity, ref Datta et al., 2017; cited from earlier work.

As for `CCCCCCCCCCCCCC[n+]1cccc(Cl)c1.[Br-]` [Compound B14, 1-tetradecyl-3-chloropyridinium bromide], the “dilution in plankton needed to match the fraction of dead cells in the biofilm” value in data set [1] was found to be 10 fold. For the same compound, in the data set on CHO-K1 cells (Cricetulus griseus), the IC50 turned out to be 17.2 ± 1.3 µM. In addition, in data set [2] (250 μM), the “biofilm surface coverage change during the treatment” value is reported as “did not change significantly” and the “proportion of live cells in biofilm” value is given as 14%.
`CCCCCCCCCCCCCC[n+]1ccn(CCO)c1.[Br-]` [Compound C14, 3-tetradecyl-1-(2-hydroxyethyl)imidazolium bromide]: in data set [1], the “resistance of biofilm bacteria compared to planktonic bacteria” value was found to be 4 fold and the “dilution in plankton needed to match the fraction of dead cells in the biofilm” value is listed as 4 fold. In addition, in the data set on CHO-K1 cells (Cricetulus griseus), the half-inhibitory concentration (IC50) was 1.19 ± 0.9 µM. In addition, in data set [2] (250 μM), the “biofilm surface coverage change during the treatment” value is “did not change significantly” and the “proportion of live cells in biofilm” value is recorded as 3%. The “fraction of dead cells in biofilm” value in data set [2] (after 1 min of treatment, 250 μM) is “majority of cells in the biofilm were dead”. The “fraction of dead bacteria in biofilm” value in data set [2] (after 3 min of treatment, 250 μM) is reported as 86 ± 4%.
For the compound `CCCCCCCCCCCC[n+]1ccn(CCO)c1` [Compound C12], the IC50 in the data set with CHO-K1 cells (Cricetulus griseus) came to 1.43 ± 3 µM.
In the case of `CCCCCCCCCCCCCCCC[n+]1cccc(Cl)c1.[Br-]` [Compound B16, 1-hexadecyl-3-chloropyridinium bromide], the melting point lay in the range of 91.4 to 92.2 °C. In addition, the IC50 with CHO-K1 cells (Cricetulus griseus) came out at 12.5 ± 1.1 µM.
For the compound `CCCCCCCCCCCC[n+]1ccccc1` [Compound A12, 1-dodecylpyridinium], the IC50 in the data set with CHO-K1 cells (Cricetulus griseus) came to 38.8 ± 0.9 µM.
As to `CCCCCCCCCCCC[n+]1cccc(Cl)c1.[Br-]` [Compound B12, 1-dodecyl-3-chloropyridinium bromide], the melting point was in the range of 68.5 to 69.2 °C. The IC50 in the data set on CHO-K1 cells (Cricetulus griseus) is 25.5 ± 2.5 µM.
With benzalkonium chloride, the IC50 in the data set on Human alveolar cells is about 14.8 µM; in data set [3] it was about 22.8 µM. Moreover, the EC50 with human hepatoma cell line is about 12.4 µM.
For the compound `[Na+].[O-]Cl` [Sodium hypochlorite, reference compound], the IC50 with CHO-K1 cells is 6.45 ± 1.1 µM. Further, the biofilm coverage result in data set [2] (after 1 min of exposure, 3% V/V, positive control) is on record as “below 1%”.
Regarding `CCCCCCCCCCCCCCCC[n+]1ccn(CCO)c1` [Compound C16], the melting point was 49.2 to 50.1 °C. Besides, the IC50 with CHO-K1 cells (Cricetulus griseus) is 1.03 ± 1 µM.

The record behind these values is publication PMC7606276, “The Antibacterial Effects of New N-Alkylpyridinium Salts on Planktonic and Biofilm Bacteria” (Frontiers in Microbiology, 2020).
